Experimental data from US10316019B2, “Method for preparing the anhydrous crystalline form of isoniazid-derived hydrazone, thus produced crystalline polymorph of the anyhydrous form, use thereof for the treatment of alzheimer's disease, parkinsonism and other neurodegenerative disorders, and pharamceutical composition” (FACULDADDES CATÓLICAS, Associação sem fins Lucrativos, …, priority 2014, dated 2019).

Key:
[1] = system: Wistar male rats; test: Acute toxicity test, intraperitoneal injection; type: in vivo; conditions: i.p. up to 300 mg kg^−1, Wistar male rats
[2] = system: α-synuclein and Cu(II)/Cu(I); test: 1H NMR competition for Cu(II)/Cu(I) bound to α-synuclein; type: binding
[3] = system: β-amyloid peptide and Zn(II); test: 2D 1H×15N HSQC NMR competition for Zn(II) bound to β-amyloid peptide; type: binding

O=C(N/N=C/c1ccc2cccc(O)c2n1)c1ccncc1 [INHHQ, 8-hydroxyquinoline-2-carboxaldehyde isonicotinoyl hydrazone]
Behavioral changes ([1]; 72 h): no behavioral changes | Macroscopic organ abnormalities at dissection ([1]; after sacrifice): no macroscopic abnormalities | Direct interaction with α-synuclein ([2]; 1D and 2D NMR): does not interact directly | Effect on α-synuclein methionine 1H NMR signals in the presence of copper (Cu-α-synuclein interaction) ([2]; INHHQ 4 eq. added to α-synuclein + Cu(II)/Cu(I) 1 eq.): recovery of the original methionine signals' position | Direct interaction with β-amyloid peptide ([3]; 1D and 2D NMR): does not interact directly | Effect on Aβ HSQC signals in the presence of Zn(II) (Zn(II)-Aβ interaction) ([3]; INHHQ 4 eq. added to β-amyloid peptide + Zn(II) 1 eq.): partial intensity recovery for all Aβ signals
